Data taken from patent publication US20260217765A1, “NOVEL ANTIMICROBIAL PEPTIDE DESIGNED FROM DUCK-DERIVED ANTIMICROBIAL PEPTIDE ANDUSE THEREOF” (INDUSTRY-ACADEMIC COOPERATION FOUNDATION, CHOSUN UNIVERSITY, priority 2023, published 2026).
In brackets after ≈: the same amount, converted by molar mass. Peptide text beside a SMILES is read from it.

Experiments:
[1] = system: Acinetobacter baumannii KCTC 2508; format: cell-based; conditions: KCTC 2508, 24 h
Procedure: Specifically, among the bacterial strains listed in Table 2, those known to form biofilms well (Acinetobacter baumannii KCTC 2508, Acinetobacter baumannii isolate 10, and isolate 14) were cultured in the appropriate media to the mid-log phase and diluted to a cell concentration of 5×10^4 cells/100 µL, followed by inoculation into microplates (SPL). Subsequently, the peptides prepared in <Example 1> were serially 10-fold diluted with 10 mM sodium phosphate buffer (pH 7.2), and 10 μL of each dilution was added to each well. The plates were then incubated at 37° C. for 24 hours. After completely removing the supernatant, the plates were fixed with 100% methanol for 15 minutes, stained with crystal violet staining solution for 1 hour, washed three times, and then the stain was solubilized with 95% ethanol. Absorbance was measured at 595 nm using a microplate reader to determine the MBIC values for each bacterial strain.

[2] = system: Acinetobacter baumannii_isolate 4 (antibiotic-resistant); format: cell-based, Acinetobacter baumannii; conditions: isolate 4 (antibiotic-resistant)
From the text: (§1) To compare the antimicrobial activity of the peptides prepared in <Example 1>, the minimum inhibitory concentration (MIC), […] measured. Here, the minimal inhibitory concentration (MIC) refers to the lowest concentration of a substance that prevents visible bacterial growth.
(§2) Specifically, the bacterial strains listed in Table 2 below were obtained and cultured in media suitable for each strain until the mid-log phase. The cultures were then diluted to a concentration of 2×10^4 cells/100 μL and prepared in microtiter plates (Nunc, USA). Subsequently, serial 2-fold dilutions of the peptides prepared in Example 1 were prepared, and 10 μL of each dilution was added to the wells, and the plates were incubated at 37° C. for 18 hours. Absorbance at 600 nm was measured using a microtiter plate reader (Merck ELISA reader, Germany) to determine the MIC values for each bacterial strain. The parent peptide dCATH was used as a control.

[3] = system: Acinetobacter baumannii_isolate 24 (antibiotic-resistant); format: cell-based, Acinetobacter baumannii; conditions: isolate 24 (antibiotic-resistant)
From the text: as §1, §2

[4] = system: Acinetobacter baumannii_isolate 7 (antibiotic-resistant); format: cell-based, Acinetobacter baumannii; conditions: isolate 7 (antibiotic-resistant)
From the text: as §1, §2

[5] = system: Acinetobacter baumannii_isolate 19 (antibiotic-resistant); format: cell-based, Acinetobacter baumannii; conditions: isolate 19 (antibiotic-resistant)
From the text: as §1, §2

[6] = system: Acinetobacter baumannii_isolate 10 (antibiotic-resistant); format: cell-based, Acinetobacter baumannii; conditions: isolate 10 (antibiotic-resistant)
From the text: as §1, §2

[7] = system: Acinetobacter baumannii_isolate 17 (antibiotic-resistant); format: cell-based, Acinetobacter baumannii; conditions: isolate 17 (antibiotic-resistant)
From the text: as §1, §2

[8] = system: Acinetobacter baumannii_isolate 14 (antibiotic-resistant); format: cell-based, Acinetobacter baumannii; conditions: isolate 14 (antibiotic-resistant)
From the text: as §1, §2

[9] = system: Acinetobacter baumannii_isolate 12 (antibiotic-resistant); format: cell-based, Acinetobacter baumannii; conditions: isolate 12 (antibiotic-resistant)
From the text: as §1, §2

[10] = system: Acinetobacter baumannii_isolate 5 (antibiotic-resistant); format: cell-based, Acinetobacter baumannii; conditions: isolate 5 (antibiotic-resistant)
From the text: as §1, §2

[11] = system: Acinetobacter baumannii_isolate 13 (antibiotic-resistant); format: cell-based, Acinetobacter baumannii; conditions: isolate 13 (antibiotic-resistant)
From the text: as §1, §2

[12] = system: Acinetobacter baumannii_isolate 9 (antibiotic-resistant); format: cell-based, Acinetobacter baumannii; conditions: isolate 9 (antibiotic-resistant)
From the text: as §1, §2

[13] = system: Acinetobacter baumannii_isolate 26 (antibiotic-resistant); format: cell-based, Acinetobacter baumannii; conditions: isolate 26 (antibiotic-resistant)
From the text: as §1, §2

[14] = system: Acinetobacter baumannii_isolate 8 (antibiotic-resistant); format: cell-based, Acinetobacter baumannii; conditions: isolate 8 (antibiotic-resistant)
From the text: as §1, §2

[15] = system: Acinetobacter baumannii_isolate16 (antibiotic-resistant); format: cell-based, Acinetobacter baumannii; conditions: isolate16 (antibiotic-resistant)
From the text: as §1, §2

[16] = system: Acinetobacter baumannii_isolate20 (antibiotic-resistant); format: cell-based, Acinetobacter baumannii; conditions: isolate20 (antibiotic-resistant)
From the text: as §1, §2

[17] = system: Acinetobacter baumannii_isolate 18 (antibiotic-resistant); format: cell-based, Acinetobacter baumannii; conditions: isolate 18 (antibiotic-resistant)
From the text: as §1, §2

[18] = system: Acinetobacter baumannii_isolate 23 (antibiotic-resistant); format: cell-based, Acinetobacter baumannii; conditions: isolate 23 (antibiotic-resistant)
From the text: as §1, §2

[19] = system: Acinetobacter baumannii_isolate 22 (antibiotic-resistant); format: cell-based, Acinetobacter baumannii; conditions: isolate 22 (antibiotic-resistant)
From the text: as §1, §2

[20] = system: Acinetobacter baumannii_isolate 6 (antibiotic-resistant); format: cell-based, Acinetobacter baumannii; conditions: isolate 6 (antibiotic-resistant)
From the text: as §1, §2

[21] = system: Acinetobacter baumannii_isolate 3 (antibiotic-resistant); format: cell-based, Acinetobacter baumannii; conditions: isolate 3 (antibiotic-resistant)
From the text: as §1, §2

[22] = system: Acinetobacter baumannii_isolate 25 (antibiotic-resistant); format: cell-based, Acinetobacter baumannii; conditions: isolate 25 (antibiotic-resistant)
From the text: as §1, §2

[23] = system: Acinetobacter baumannii_isolate21 (antibiotic-resistant); format: cell-based, Acinetobacter baumannii; conditions: isolate21 (antibiotic-resistant)
From the text: as §1, §2

[24] = system: Acinetobacter baumannii_isolate 1 (antibiotic-resistant); format: cell-based, Acinetobacter baumannii; conditions: isolate 1 (antibiotic-resistant)
From the text: as §1, §2

[25] = system: Acinetobacter baumannii_isolate11 (antibiotic-resistant); format: cell-based, Acinetobacter baumannii; conditions: isolate11 (antibiotic-resistant)
From the text: as §1, §2

[26] = system: Acinetobacter baumannii_isolate 2 (antibiotic-resistant); format: cell-based, Acinetobacter baumannii; conditions: isolate 2 (antibiotic-resistant)
From the text: as §1, §2

[27] = system: Acinetobacter baumannii_isolate15 (antibiotic-resistant); format: cell-based, Acinetobacter baumannii; conditions: isolate15 (antibiotic-resistant)
From the text: as §1, §2

CC[C@H](C)[C@H](NC(=O)[C@H](C)NC(=O)[C@H](CCCCN)NC(=O)[C@H](CCCCN)NC(=O)[C@@H](NC(=O)[C@H](CC(C)C)NC(=O)[C@H](CCC(N)=O)NC(=O)[C@H](C)NC(=O)[C@H](C)NC(=O)[C@H](CCCNC(=N)N)NC(=O)[C@@H](N)CCCCN)C(C)C)C(=O)N[C@@H](CCCCN)C(=O)N[C@@H](CCCCN)C(=O)N[C@@H](Cc1ccc(O)cc1)C(=O)N[C@@H](CCCNC(=N)N)C(=O)N[C@@H](C)C(=O)N[C@@H](Cc1c[nH]c2ccccc12)C(=O)N[C@@H](CCCCN)C(=O)N[C@@H](CCCNC(=N)N)C(=O)N[C@@H](CCCNC(=N)N)C(N)=O [dCATH-A6] (H-KRAAQLVKKAIKKYRAWKRR-NH2; N-terminus assumed)
MBIC [1]: 2 µM | MIC [2]: 1 µM (≈ 2.5 µg/mL) | MIC [3]: 1 µM (≈ 2.5 µg/mL) | MIC [4]: 1 µM (≈ 2.5 µg/mL) | MIC [5]: 1 µM (≈ 2.5 µg/mL) | MIC [6]: 2 µM (≈ 5 µg/mL) | MIC [7]: 1 µM (≈ 2.5 µg/mL) | MIC [8]: 2 µM (≈ 5 µg/mL) | MIC [9]: 1 µM (≈ 2.5 µg/mL) | MIC [10]: 1 µM (≈ 2.5 µg/mL) | MIC [11]: 1 µM (≈ 2.5 µg/mL) | MIC [12]: 1 µM (≈ 2.5 µg/mL) | MIC [13]: 2 µM (≈ 5 µg/mL) | MIC [14]: 1 µM (≈ 2.5 µg/mL) | MIC [15]: 1 µM (≈ 2.5 µg/mL) | MIC [16]: 1 µM (≈ 2.5 µg/mL) | MIC [17]: 1 µM (≈ 2.5 µg/mL) | MIC [18]: 1 µM (≈ 2.5 µg/mL) | MIC [19]: 1 µM (≈ 2.5 µg/mL) | MIC [20]: 2 µM (≈ 5 µg/mL) | MIC [21]: 1 µM (≈ 2.5 µg/mL) | MIC [22]: 2 µM (≈ 5 µg/mL) | MIC [23]: 1 µM (≈ 2.5 µg/mL) | MIC [24]: 1 µM (≈ 2.5 µg/mL) | MIC [25]: 1 µM (≈ 2.5 µg/mL) | MIC [26]: 2 µM (≈ 5 µg/mL) | MIC [27]: 1 µM (≈ 2.5 µg/mL)

CC[C@H](C)[C@H](NC(=O)[C@H](C)NC(=O)[C@H](CCCCN)NC(=O)[C@H](CCCCN)NC(=O)[C@@H](NC(=O)[C@H](CC(C)C)NC(=O)[C@H](CCC(N)=O)NC(=O)[C@H](C)NC(=O)[C@H](C)NC(=O)[C@H](CCCNC(=N)N)NC(=O)[C@@H](N)CCCCN)C(C)C)C(=O)N[C@@H](CCCCN)C(=O)N[C@H](C(=O)N[C@@H](Cc1ccc(O)cc1)C(=O)N[C@@H](CCCNC(=N)N)C(=O)N[C@@H](C)C(=O)N[C@@H](Cc1c[nH]c2ccccc12)C(=O)N[C@@H](CCCCN)C(=O)N[C@@H](CCCNC(=N)N)C(=O)N[C@@H](CCCNC(=N)N)C(N)=O)[C@@H](C)CC [dCATH-A5] (H-KRAAQLVKKAIKIYRAWKRR-NH2; N-terminus assumed)
MBIC [1]: 2 µM | MIC [2]: 1 µM (≈ 2.48 µg/mL) | MIC [3]: 2 µM (≈ 4.97 µg/mL) | MIC [4]: 1 µM (≈ 2.48 µg/mL) | MIC [5]: 1 µM (≈ 2.48 µg/mL) | MIC [6]: 1 µM (≈ 2.48 µg/mL) | MIC [7]: 1 µM (≈ 2.48 µg/mL) | MIC [8]: 1 µM (≈ 2.48 µg/mL) | MIC [9]: 1 µM (≈ 2.48 µg/mL) | MIC [10]: 1 µM (≈ 2.48 µg/mL) | MIC [11]: 1 µM (≈ 2.48 µg/mL) | MIC [12]: 1 µM (≈ 2.48 µg/mL) | MIC [13]: 1 µM (≈ 2.48 µg/mL) | MIC [14]: 1 µM (≈ 2.48 µg/mL) | MIC [15]: 1 µM (≈ 2.48 µg/mL) | MIC [16]: 1 µM (≈ 2.48 µg/mL) | MIC [17]: 1 µM (≈ 2.48 µg/mL) | MIC [18]: 1 µM (≈ 2.48 µg/mL) | MIC [19]: 2 µM (≈ 4.97 µg/mL) | MIC [20]: 1 µM (≈ 2.48 µg/mL) | MIC [21]: 1 µM (≈ 2.48 µg/mL) | MIC [22]: 1 µM (≈ 2.48 µg/mL) | MIC [23]: 1 µM (≈ 2.48 µg/mL) | MIC [24]: 1 µM (≈ 2.48 µg/mL) | MIC [25]: 1 µM (≈ 2.48 µg/mL) | MIC [26]: 1 µM (≈ 2.48 µg/mL) | MIC [27]: 1 µM (≈ 2.48 µg/mL)
